# Like-named read-outs stand apart in the source and are kept apart here. Square brackets hold non-standard residues; d marks the D form. Peptide text beside a SMILES is read from it. * marks the point of attachment. ξ: configuration not given here. d(β3hW) = N[C@@H](CC(=O)O)Cc1c[nH]c2ccccc12; dNMeW = CN[C@H](Cc1c[nH]c2ccccc12)C(=O)O; d(β3hF) = N[C@@H](CC(=O)O)Cc1ccccc1; β3hF = N[C@H](CC(=O)O)Cc1ccccc1; dPhg = N[C@@H](C(=O)O)c1ccccc1; NMeL = CN[C@@H](CC(C)C)C(=O)O; d(β3hA) = C[C@@H](N)CC(=O)O; dNle = CCCC[C@@H](N)C(=O)O; ξ2Thi = NC(Cc1cccs1)C(=O)O; 3Abz = Nc1cccc(C(=O)O)c1; Nva = CCC[C@H](N)C(=O)O; Cbz = O=C(OCc1ccccc1)*; Boc = CC(C)(C)OC(=O)*; Aib = CC(C)(N)C(=O)O; OBn = c1ccc(CO*)cc1; Ahx = NCCCCCC(=O)O; GABA = NCCCC(=O)O; βAla = NCCC(=O)O
# Molecular target: T1, endothelin receptor (membrane of smooth muscle tissue of porcine aorta) (Sus scrofa, UniProt Q29010)
# T1 construct: from tissue; host or cells: porcine aorta smooth muscle, membrane fraction
# T1 sequence (Q29010 21-427): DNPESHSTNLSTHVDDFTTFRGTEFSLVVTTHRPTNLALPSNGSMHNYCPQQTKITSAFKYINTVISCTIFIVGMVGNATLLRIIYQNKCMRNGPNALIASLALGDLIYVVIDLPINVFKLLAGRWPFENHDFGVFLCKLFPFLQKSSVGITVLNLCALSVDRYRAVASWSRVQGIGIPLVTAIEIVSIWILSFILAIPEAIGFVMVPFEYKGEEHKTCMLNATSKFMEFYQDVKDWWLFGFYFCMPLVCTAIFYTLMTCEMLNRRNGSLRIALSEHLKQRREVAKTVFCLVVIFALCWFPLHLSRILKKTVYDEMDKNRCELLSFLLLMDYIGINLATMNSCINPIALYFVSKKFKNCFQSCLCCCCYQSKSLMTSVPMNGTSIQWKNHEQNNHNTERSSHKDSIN
# Assay: Endothelin binding inhibition test (125I-endothelin-1, porcine aorta smooth muscle membrane)
# Conditions: read-out: 125I-endothelin-1 binding inhibition; for inhibition at 1.1 µM: 1.1 μM test compound (no mark)
# Experimental: The smooth muscle tissue of porcine aorta was homogenized in a buffer solution of 10 mM MOPS, pH 7.4, at 4° C. by a polytron. To the homogenate, sucrose was added to a concentration of 20%, and the mixture was centrifuged at 1,000×g for 15 minutes, and the supernatant was further centrifuged at 10,000×g for 15 minutes. The supernatant thereof was further centrifuged at 90,000×g for 40 minutes. The membrane precipitate thereby obtained was suspended in a buffer solution of 5 mM HEPES/Tris, pH 7.4, at a concentration of 25 mg/ml.
# Then, 16 μl of this membrane suspension was added to 340 μl of 50 mM Tris/HCl buffer, pH 7.4, containing 10 μM calcium chloride, 10 μM magnesium chloride, 0.1 mM PMSF, 1 μM pepstatin A, 2 μM leupeptin, 1 mM 1,10-phenanthroline and 0.1% bovine serum albumin. To this suspension, 4 μl of (A) endothelin-1 (for nonspecific binding; 0.2 μM as the final concentration), (B) buffer solution A (for total control binding), or (C) a test compound (1.1 μM or 10 μM as the final concentration),was added. Further, to each suspension, 40 μl of ^125 I-endothelin-1 (12000-18000 cpm) was added. These mixtures were incubated at 25° C. for 4 hours, then subjected to filtration on a glass filter GF/C and then washed with 5 mM HEPES/Tris, pH 7.4, containing 0.3% bovine serum albumin. Then, the radioactivity trapped by the glass filter was measured, and the ^125 I-endothelin-1 binding inhibition D (%) at 1.1 μM or 10 μM of the test compound was determined by the following equation. [formula] Each test was performed in triplicate.
# The test compounds are indicated by Compound Nos.
SMILES,inhibition at 1.1 µM [%],other results
CC(C)C[C@H](NC(=O)OC(C)(C)C)C(=O)N[C@H](Cc1c[nH]c2ccccc12)C(=O)N[C@H](C)CC(=O)O [Compound 1] (Boc-Leu-[dW]-[d(β3hA)]-OH),74,–
CC(C)C[C@H](NC(=O)OC(C)(C)C)C(=O)N[C@H](Cc1c[nH]c2ccccc12)C(=O)N[C@H](Cc1c[nH]c2ccccc12)C(=O)O [Compound 2] (Boc-Leu-[dW]-[dW]-OH),83,–
CC(C)C[C@H](NC(=O)OC(C)(C)C)C(=O)N[C@H](Cc1c[nH]c2ccccc12)C(=O)N[C@H](CC(C)C)C(=O)O [Compound 3] (Boc-Leu-[dW]-[dL]-OH),31,–
CC(C)C[C@H](NC(=O)OC(C)(C)C)C(=O)N[C@H](Cc1c[nH]c2ccccc12)C(=O)N[C@H](Cc1c[nH]cn1)C(=O)O [Compound 4] (Boc-Leu-[dW]-[dH]-OH),80,–
CC(C)C[C@H](NC(=O)OC(C)(C)C)C(=O)N[C@H](Cc1c[nH]c2ccccc12)C(=O)NCCCC(=O)O [Compound 5] (Boc-Leu-[dW]-[GABA]-OH),33,–
CC(C)C[C@H](NC(=O)OC(C)(C)C)C(=O)N[C@H](Cc1c[nH]c2ccccc12)C(=O)NCCCCCC(=O)O [Compound 6] (Boc-Leu-[dW]-[Ahx]-OH),–,inhibition at 10 µM (10 μM test compound (marked *)): 37%
CC(C)C[C@H](NC(=O)OC(C)(C)C)C(=O)N[C@H](Cc1c[nH]c2ccccc12)C(=O)N[C@H](CO)C(=O)O [Compound 7] (Boc-Leu-[dW]-[dS]-OH),35,–
CC(C)C[C@H](NC(=O)OC(C)(C)C)C(=O)N[C@H](Cc1c[nH]c2ccccc12)C(=O)N[C@H](CCCCNC(=O)OCc1ccccc1)C(=O)O [Compound 8] (Boc-Leu-[dW]-[dK](Cbz)-OH),56,–
CC(C)C[C@H](NC(=O)OC(C)(C)C)C(=O)N[C@H](Cc1c[nH]c2ccccc12)C(=O)N[C@H](CC(N)=O)C(=O)O [Compound 9] (Boc-Leu-[dW]-[dN]-OH),–,inhibition at 10 µM (10 μM test compound (marked *)): 55%
CC(C)C[C@H](NC(=O)OC(C)(C)C)C(=O)N[C@H](Cc1c[nH]c2ccccc12)C(=O)N[C@H](CCC(N)=O)C(=O)O [Compound 10] (Boc-Leu-[dW]-[dQ]-OH),32,–
CCCC[C@@H](NC(=O)[C@@H](Cc1c[nH]c2ccccc12)NC(=O)[C@H](CC(C)C)NC(=O)OC(C)(C)C)C(=O)O [Compound 11] (Boc-Leu-[dW]-[dNle]-OH),41,–
CC(C)C[C@H](NC(=O)OC(C)(C)C)C(=O)N[C@H](Cc1c[nH]c2ccccc12)C(=O)Nc1cccc(C(=O)O)c1 [Compound 12] (Boc-Leu-[dW]-[3Abz]-OH),31,–
CC(C)C[C@H](NC(=O)OC(C)(C)C)C(=O)N[C@H](Cc1c[nH]c2ccccc12)C(=O)NC(C)(C)C(=O)O [Compound 13] (Boc-Leu-[dW]-[Aib]-OH),39,–
CC(C)C[C@H](NC(=O)OC(C)(C)C)C(=O)N[C@H](Cc1c[nH]c2ccccc12)C(=O)NC(CC(=O)O)c1ccccc1 (some centres unmarked) [Compound 14],64,–
CC(C)C[C@H](NC(=O)OC(C)(C)C)C(=O)N[C@H](Cc1c[nH]c2ccccc12)C(=O)NC(Cc1cccs1)C(=O)O (stereo partly drawn) [Compound 15] (Boc-Leu-[dW]-[ξ2Thi]-OH),71,–
CC(C)C[C@H](NC(=O)OC(C)(C)C)C(=O)N[C@H](Cc1c[nH]c2ccccc12)C(=O)NC(Cc1nccs1)C(=O)O (some centres unmarked) [Compound 16],74,–
CC(C)C[C@H](NC(=O)OC(C)(C)C)C(=O)N[C@H](Cc1c[nH]c2ccccc12)C(=O)NCC(O)C(=O)O (some centres unmarked) [Compound 17],38,–
CC(C)C[C@H](NC(=O)OC(C)(C)C)C(=O)N[C@H](Cc1c[nH]c2ccccc12)C(=O)N[C@@H](CC(=O)O)Cc1c[nH]c2ccccc12 [Compound 19] (Boc-Leu-[dW]-[d(β3hW)]-OH),–,inhibition at 10 µM: 53%

SMILES,inhibition at 1.1 µM [%],other results
CC(C)C[C@H](NC(=O)OC(C)(C)C)C(=O)N[C@H](Cc1c[nH]c2ccccc12)C(=O)N[C@@H](CC(=O)O)Cc1ccccc1 [Compound 20] (Boc-Leu-[dW]-[d(β3hF)]-OH),44,–
CC(C)C[C@H](NC(=O)OC(C)(C)C)C(=O)N[C@H](Cc1c[nH]c2ccccc12)C(=O)N[C@H](CC(=O)O)Cc1ccccc1 [Compound 21] (Boc-Leu-[dW]-[β3hF]-OH),39,–
Cc1nc[nH]c1CSC[C@@H](NC(=O)[C@@H](Cc1c[nH]c2ccccc12)NC(=O)[C@H](CC(C)C)NC(=O)OC(C)(C)C)C(=O)O [Compound 22],–,inhibition at 10 µM (10 μM test compound (marked *)): 36%
CC(C)C[C@H](NC(=O)OC(C)(C)C)C(=O)N[C@H](Cc1c[nH]c2ccccc12)C(=O)NCC(=O)NCC(=O)O [Compound 23] (Boc-L[dW]GG-OH),33,–
CC(C)C[C@H](NC(=O)OC(C)(C)C)C(=O)N[C@H](Cc1c[nH]c2ccccc12)C(=O)N[C@H](Cc1ccccc1)CS(=O)(=O)O [Compound 26],–,inhibition at 10 µM (10 μM test compound (marked *)): 36%
CCC[C@H](NC(=O)OC(C)(C)C)C(=O)N[C@H](Cc1c[nH]c2ccccc12)C(=O)NCCC(=O)O [Compound 28] (Boc-[Nva]-[dW]-[βAla]-OH),38,–
CC(C)C[C@H](NC(=O)OC(C)(C)C)C(=O)N[C@H](Cc1c[nH]c2ccccc12)C(=O)NCCC(=O)O [Compound 29] (Boc-Leu-[dW]-[βAla]-OH),69,–
CC(C)C[C@@H](C(=O)N[C@H](Cc1c[nH]c2ccccc12)C(=O)NCCC(=O)O)N(C)C(=O)OC(C)(C)C [Compound 30] (Boc-[NMeL]-[dW]-[βAla]-OH),44,–
CC(C)C[C@H](NC(=O)OC(C)(C)C)C(=O)N[C@H](Cc1c[nH]c2ccccc12)C(=O)NCC(=O)O [Compound 31] (Boc-Leu-[dW]-Gly-OH),45,–
CC(C)C[C@H](NC(=O)OC(C)(C)C)C(=O)N(C)[C@H](Cc1c[nH]c2ccccc12)C(=O)NCCC(=O)O [Compound 32] (Boc-Leu-[dNMeW]-[βAla]-OH),–,inhibition at 10 µM (10 μM test compound (marked *)): 32%
CC(C)C[C@H](NC(=O)OC(C)(C)C)C(=O)N[C@H](Cc1c[nH]c2ccccc12)C(=O)N[C@H](CC(=O)OCc1ccccc1)C(N)=O [Compound 35] (Boc-Leu-[dW]-[dD](OBn)-NH2),35,–
CC(C)C[C@H](NC(=O)OC(C)(C)C)C(=O)N[C@H](Cc1c[nH]c2ccccc12)C(=O)N[C@H](CC(=O)O)C(N)=O [Compound 36] (Boc-Leu-[dW]-[dD]-NH2),65,–
CC(C)C[C@H](NC(=O)OC(C)(C)C)C(=O)N[C@H](Cc1c[nH]c2ccccc12)C(=O)N[C@@H](CC(=O)OCc1ccccc1)C(N)=O [Compound 37] (Boc-Leu-[dW]-Asp(OBn)-NH2),–,inhibition at 10 µM (10 μM test compound (marked *)): 29%
CC(C)C[C@H](NC(=O)OC(C)(C)C)C(=O)N[C@H](Cc1c[nH]c2ccccc12)C(=O)N[C@@H](CC(=O)O)C(N)=O [Compound 38] (Boc-Leu-[dW]-Asp-NH2),22,–
CC(C)C[C@H](NC(=O)OC(C)(C)C)C(=O)N[C@H](Cc1c[nH]c2ccccc12)C(=O)N[C@H](Cc1ccccc1)C(=O)O [Compound 39] (Boc-Leu-[dW]-[dF]-OH),75,–
CC(C)C[C@H](NC(=O)OC(C)(C)C)C(=O)N[C@H](Cc1c[nH]c2ccccc12)C(=O)N[C@@H](C(=O)O)c1ccccc1 [Compound 40] (Boc-Leu-[dW]-[dPhg]-OH),36,–
CC(C)C[C@H](NC(=O)OC(C)(C)C)C(=O)N[C@H](Cc1c[nH]c2ccccc12)C(=O)N[C@H](C)C(=O)O [Compound 41] (Boc-Leu-[dW]-[dA]-OH),65,–
